Assay results: the NIST ThermoML archive (doi:10.1021/je049586l)
Numbers after ± are expanded uncertainties. Values belong to the molecule of their own block, whether it stands above or below them.

Assay: molar enthalpy of vaporization or sublimation
Details: Crystal, Static calorimetry

- molar enthalpy (385 K): 31.1 ± 1.82 kcal/mol
Compound: COC(=O)c1cccc(C(=O)OC)n1 [2,6-pyridinedicarboxylic acid, dimethyl ester]

- molar enthalpy (492 K): 46.5 ± 1.29 kcal/mol
Compound: O=C(O)c1ccc(C(=O)O)nc1 [2,5-pyridinedicarboxylic acid]

- molar enthalpy (494 K): 40.2 ± 2.63 kcal/mol
Compound: O=C(O)c1cccc(C(=O)O)n1 [pyridine-2,6-dicarboxylic acid]
